Reference: US20110166109A1, “Synergistic Active Compound Combinations Comprising Phenyltriazoles” (Bayer CropScience AG, priority 2009, published 2011)
Where two headings read alike, the source gives them in different places.

Key:
Type in all cases: in vivo
Phaedon cochleariae = Phaedon cochleariae larvae test (treated cabbage leaves); details: applied individually; for pest or weed control at 500 g/ha / pest or weed control at 200 g/ha / pest or weed control at 100 g/ha: Phaedon cochleariae, 144 h, after 6 d, read-out: Kill in % after 6d
Spodoptera frugiperda = Spodoptera frugiperda larvae test (sprayed cabbage leaves); details: applied individually
Experimental: (§1) To produce a suitable preparation of active compound, 1 part by weight of active compound is mixed with the stated amounts of solvent and emulsifier, and the concentrate is diluted with emulsifier-containing water to the desired concentration.
Cabbage leaves (Brassica okracea) are treated by being sprayed with the preparation of active compound of the desired concentration and are populated with larvae of the armyworm (Spodoptera frugiperda) while the leaves are still moist.
After the desired period of time, the kill in % is determined. 100% means that all caterpillars have been killed; 0% means that none of the caterpillars have been killed. The kill rates determined are entered into Colby's formula.

Tetranychus urticae = test: Tetranychus test (OP-resistant/spray treatment), bean leaf discs
Experimental: as §1
Discs of bean leaves (Phaseolus vulgaris) which are infested by all stages of the greenhouse red spidermite (Tetranychus urticae) are sprayed with an active compound preparation of the desired concentration.
After the desired period of time, the effect in % is determined. 100% means that all spider mites have been killed; 0% means that none of the spider mites have been killed.

Myzus persicae = Myzus persicae test (spray treatment of infested cabbage leaves); details: applied individually
Experimental: as §1
Cabbage leaves (Brassica oleracea) which are heavily infested by the green peach aphid (Myzus persicae) are treated by spraying with the active compound preparation of the desired concentration.
After the desired period of time, the kill in % is determined. 100% means that all of the aphids have been destroyed; 0% means that none of the aphids have been destroyed. The kill rates determined are entered into Colby's formula.

[1] = Tetranychus urticae, foliar, 144 h, read-out: Kill in % after 6d
[2] = Tetranychus urticae, foliar, 144 h, 500 g/ha, after 6 d, applied individually, read-out: Kill in % after 6d

Which pest or weed control at 500 g/ha (Phaedon cochleariae; 500 g/ha) does the source give for CCC1(C(=O)NC(C)c2ccc(Cl)cc2)C(C)C1(Cl)Cl (centres unmarked) [carpropamid] here?
Its pest or weed control at 500 g/ha is 0%.

What about the “Kill in % after 6d” value (Spodoptera frugiperda; 500 g/ha) of the same compound?
Its value is 0%.

For CC(C)(C)C(O)C(Oc1ccc(Cl)cc1)n1cncn1 (centres unmarked) [triadimenol], which pest or weed control at 500 g/ha (Phaedon cochleariae; 500 g/ha) is on record?
Its pest or weed control at 500 g/ha is 0%.

And the pest or weed control at 200 g/ha (Tetranychus urticae; [1])?
Its pest or weed control at 200 g/ha is 0%.

And the “Kill in % after 6d” value (Spodoptera frugiperda; 500 g/ha)?
The value was 0%.

Which pest or weed control at 500 g/ha (Phaedon cochleariae; 500 g/ha) does the source give for O=C(Nc1ccccc1)N(Cc1ccc(Cl)cc1)C1CCCC1 [pencycuron] here?
Its pest or weed control at 500 g/ha is 0%.

With CC(C)(C)C(O)(CCc1ccc(Cl)cc1)Cn1cncn1 (centres unmarked) [tebuconazole] as the compound, how does the pest or weed control at 500 g/ha (Phaedon cochleariae; 500 g/ha) read?
The pest or weed control at 500 g/ha was 0%.

And the pest or weed control at 200 g/ha (Tetranychus urticae; [1])?
Its pest or weed control at 200 g/ha is 0%.

What about the “Kill in % after 6d” value (Spodoptera frugiperda; 500 g/ha) of the same compound?
The value was 0%.

For CC(C)C1CCC(Cc2ccc(Cl)cc2)C1(O)Cn1cncn1 (centres unmarked) [ipconazole], which pest or weed control at 500 g/ha (Phaedon cochleariae; 500 g/ha) is on record?
The pest or weed control at 500 g/ha was 0%.

Which pest or weed control at 200 g/ha (Phaedon cochleariae) does the source give for N#Cc1c[nH]cc1-c1cccc2c1OC(F)(F)O2 [fludioxonil] here?
Its pest or weed control at 200 g/ha is 33%.

What about the pest or weed control at 200 g/ha (Tetranychus urticae; [1]) of the same compound?
The pest or weed control at 200 g/ha was 0%.

For OC(Cc1ccccc1Cl)(Cn1ncnc1S)C1(Cl)CC1 (centres unmarked) [prothioconazole], which pest or weed control at 500 g/ha (Phaedon cochleariae; 500 g/ha) is on record?
The pest or weed control at 500 g/ha was 0%.

And the pest or weed control at 200 g/ha (Tetranychus urticae; [1])?
Its pest or weed control at 200 g/ha is 0%.

What about the “Kill in % after 6d” value (Spodoptera frugiperda; 500 g/ha) of the same compound?
Its value is 0%.

Which results are given for COCC(=O)N(c1c(C)cccc1C)C(C)C(=O)OC (centres unmarked) [metalaxyl]?
Kill in % after 1d (Tetranychus urticae; 500 g/ha, applied individually): 0%; pest or weed control at 500 g/ha (Tetranychus urticae; [1]): 0%

Which pest or weed control at 500 g/ha (Tetranychus urticae; [1]) does the source give for CNC(=O)/C(=N/OC)c1ccccc1Oc1ccccc1 [metominostrobin] here?
Its pest or weed control at 500 g/ha is 0%.

Which pest or weed control at 500 g/ha (Phaedon cochleariae; 500 g/ha) does the source give for Cc1nn(C)c(F)c1C(=O)Nc1ccccc1C(C)CC(C)C (centres unmarked) [(6-18), N-[2-(1,3-dimethylbutyl)phenyl]-5-fluoro-1,3-dimethyl-1H-pyrazole-4-carboxamide] here?
Its pest or weed control at 500 g/ha is 0%.

And the “Kill in % after 1d” value (Tetranychus urticae; 500 g/ha, applied individually)?
The value was 0%.

What about the pest or weed control at 500 g/ha (Tetranychus urticae; [2]) of the same compound?
Its pest or weed control at 500 g/ha is 0%.

How did the pest or weed control at 500 g/ha (Phaedon cochleariae; 500 g/ha) turn out when CC(C)(C)C(O)C(Oc1ccc(-c2ccccc2)cc1)n1cncn1 (centres unmarked) [bitertanol] was run?
Its pest or weed control at 500 g/ha is 0%.

Which results are given for CSC1=N[C@@](C)(c2ccccc2)C(=O)N1Nc1ccccc1 [fenamidone]?
pest or weed control at 500 g/ha (Phaedon cochleariae; 500 g/ha): 0%; pest or weed control at 500 g/ha (Tetranychus urticae; [1]): 0%; Kill in % after 6d (Spodoptera frugiperda; 500 g/ha): 0%

CO/N=C(/C1=NOCCO1)c1ccccc1Oc1ncnc(Oc2ccccc2Cl)c1F [fluoxastrobin] was tested. Which pest or weed control at 500 g/ha (Phaedon cochleariae; 500 g/ha) did it give?
The pest or weed control at 500 g/ha was 33%.

And the pest or weed control at 500 g/ha (Tetranychus urticae; [1])?
Its pest or weed control at 500 g/ha is 0%.

Which pest or weed control at 200 g/ha (Tetranychus urticae; [1]) does the source give for CCCN(CC)CC1COC2(CCC(C(C)(C)C)CC2)O1 (centres unmarked) [spiroxamine] here?
Its pest or weed control at 200 g/ha is 0%.

O=C(NCCc1ncc(C(F)(F)F)cc1Cl)c1ccccc1C(F)(F)F [fluopyram, N-[2-[3-chloro-5-(trifluoromethyl)-2-pyridinyl]ethyl]-2-(trifluoromethyl)benzamide] was tested. Which pest or weed control at 500 g/ha (Phaedon cochleariae; 500 g/ha) did it give?
Its pest or weed control at 500 g/ha is 0%.

What about the pest or weed control at 500 g/ha (Tetranychus urticae; [1]) of the same compound?
The pest or weed control at 500 g/ha was 0%.

And the “Kill in % after 6d” value (Spodoptera frugiperda; 500 g/ha)?
The value was 0%.

What does the source list for Cc1cc(C)c([S+]([O-])CC(F)(F)F)cc1-n1cnc(C(F)(F)F)n1 (centres unmarked) [(I-1)]?
pest or weed control at 100 g/ha (Phaedon cochleariae): 0%; Kill in % after 1d (Tetranychus urticae; 0.16 g/ha, applied individually): 0%; pest or weed control at 0.16 g/ha (Tetranychus urticae; Tetranychus urticae, foliar, 144 h, 0.16 g/ha, after 6 d, applied individually, read-out: Kill in % after 6d): 0%; pest or weed control at 0.8 g/ha (Tetranychus urticae; Tetranychus urticae, foliar, 144 h, 0.8 g/ha, after 6 d, applied individually, read-out: Kill in % after 6d): 60%; Kill in % after 6d (Myzus persicae; 20 g/ha): 0%

Which pest or weed control at 500 g/ha (Phaedon cochleariae; 500 g/ha) does the source give for Cc1ccc(N(SC(F)(Cl)Cl)S(=O)(=O)N(C)C)cc1 [tolyfluanid, tolylfluanid] here?
The pest or weed control at 500 g/ha was 0%.

For N#Cc1ccccc1NC(=O)c1snc(Cl)c1Cl [isotianil], which pest or weed control at 500 g/ha (Phaedon cochleariae; 500 g/ha) is on record?
The pest or weed control at 500 g/ha was 0%.

For CO/N=C(/C(=O)OC)c1ccccc1CO/N=C(\C)c1cccc(C(F)(F)F)c1 [trifloxystrobin], which pest or weed control at 200 g/ha (Phaedon cochleariae) is on record?
Its pest or weed control at 200 g/ha is 17%.

And the pest or weed control at 500 g/ha (Phaedon cochleariae; 500 g/ha)?
The pest or weed control at 500 g/ha was 0%.

And the pest or weed control at 500 g/ha (Tetranychus urticae; [1])?
The pest or weed control at 500 g/ha was 0%.

What about the “Kill in % after 1d” value (Myzus persicae; 500 g/ha) of the same compound?
Its value is 70%.

Which pest or weed control at 500 g/ha (Phaedon cochleariae; 500 g/ha) does the source give for Cn1cc(C(=O)Nc2ccc(F)cc2-c2ccc(Cl)c(Cl)c2)c(C(F)F)n1 [bixafen, N-(3′,4′-dichloro-5-fluoro[1,1′-biphenyl]-2-yl)-3-(difluoromethyl)-1-methyl-1H-pyrazole-4-carboxamide] here?
Its pest or weed control at 500 g/ha is 0%.

And the “Kill in % after 1d” value (Tetranychus urticae; 200 g/ha, applied individually)?
Its value is 0%.

With Cc1cc(F)c(-n2nc(C(F)(F)F)nc2N)cc1[S+]([O-])CC(F)(F)F (centres unmarked) [compound (I-4)] as the compound, how does the pest or weed control at 100 g/ha (Phaedon cochleariae) read?
The pest or weed control at 100 g/ha was 0%.

And the pest or weed control at 4 g/ha (Tetranychus urticae; Tetranychus urticae, foliar, 144 h, 4 g/ha, after 6 d, applied individually, read-out: Kill in % after 6d)?
Its pest or weed control at 4 g/ha is 70%.

What about the pest or weed control at 20 g/ha (Tetranychus urticae; Tetranychus urticae, foliar, 144 h, 20 g/ha, after 6 d, applied individually, read-out: Kill in % after 6d) of the same compound?
The pest or weed control at 20 g/ha was 80%.

What about the “Kill in % after 1d” value (Myzus persicae; 100 g/ha) of the same compound?
The value was 0%.

And the “Kill in % after 6d” value (Spodoptera frugiperda; 100 g/ha)?
Its value is 0%.

How did the “Kill in % after 6d” value (Phaedon cochleariae; 500 g/ha) turn out when O=C(NCc1ncc(C(F)(F)F)cc1Cl)c1c(Cl)cccc1Cl [fluopicolide, fluopicolid] was run?
Its value is 0%.

And the pest or weed control at 500 g/ha (Phaedon cochleariae; 500 g/ha)?
The pest or weed control at 500 g/ha was 0%.

And the pest or weed control at 500 g/ha (Tetranychus urticae; [2])?
Its pest or weed control at 500 g/ha is 0%.

With O=c1c2cc(F)ccc2nc(-n2cncn2)n1-c1ccc(Cl)cc1Cl [fluquincoazole, fluquinconazole] as the compound, how does the pest or weed control at 500 g/ha (Phaedon cochleariae; 500 g/ha) read?
Its pest or weed control at 500 g/ha is 17%.

And the pest or weed control at 500 g/ha (Tetranychus urticae; [1])?
Its pest or weed control at 500 g/ha is 0%.

For COC(=O)Nc1nc2ccccc2[nH]1 [carbendazim], which “Kill in % after 6d” value (Myzus persicae; 500 g/ha) is on record?
Its value is 20%.

Which pest or weed control at 500 g/ha (Phaedon cochleariae; 500 g/ha) does the source give for CO/C=C(/C(=O)OC)c1ccccc1Oc1cc(Oc2ccccc2C#N)ncn1 [azoxystrobin] here?
Its pest or weed control at 500 g/ha is 17%.

Which pest or weed control at 200 g/ha (Phaedon cochleariae) does the source give for CCCOC(=O)NCCCN(C)C [propamocarb] here?
The pest or weed control at 200 g/ha was 17%.

What about the “Kill in % after 1d” value (Tetranychus urticae; 500 g/ha, applied individually) of the same compound?
The value was 0%.

And the pest or weed control at 500 g/ha (Tetranychus urticae; [2])?
The pest or weed control at 500 g/ha was 0%.
